Data reported in ChEMBL document CHEMBL1833798, “Coprismycins A and B, neuroprotective phenylpyridines from the dung beetle-associated bacterium, Streptomyces sp” (Bioorg Med Chem Lett, 2011).

Experiments:
MCF7 = experiment: Cytotoxicity against human MCF7 cells assessed as inhibition of cell proliferation; format: ADME, cell-based
A549 = experiment: Cytotoxicity against human A549 cells assessed as inhibition of cell proliferation; format: ADME, cell-based
SH-SY5Y [1] = experiment: Neuroprotective activity against MPP-induced neurotoxicity in human SH-SY5Y cells assessed as increase in cell viability at 5 uM pretreated for 2 hrs before MPP challenge measured after 48 hrs relative to control; format: functional
SH-SY5Y [2] = experiment: Cytotoxicity against human SH-SY5Y cells assessed as cell viability at 1 to 5 uM after 24 hrs; format: cell-based
SH-SY5Y [3] = experiment: Neuroprotective activity against MPP-induced neurotoxicity in human SH-SY5Y cells assessed as increase in cell viability pretreated for 2 hrs before MPP challenge measured after 48 hrs; format: functional, cell-based
AGS = experiment: Cytotoxicity against human AGS cells assessed as inhibition of cell proliferation; format: ADME, cell-based
HepG2 = experiment: Cytotoxicity against human HepG2 cells assessed as inhibition of cell proliferation; format: ADME, cell-based
HCT-116 = experiment: Cytotoxicity against human HCT116 cells assessed as inhibition of cell proliferation; format: ADME, cell-based
in vitro = conditions: human, HCT116 cells
Description: Cytotoxicity against human HCT116 cells assessed as inhibition of cell proliferation at 50 uM

SH-SY5Y [4] = experiment: Cytotoxicity against human SH-SY5Y cells assessed as cell viability at 5 uM after 48 hrs; format: cell-based
SH-SY5Y [5] = experiment: Neuroprotective activity against MPP-induced neurotoxicity in human SH-SY5Y cells assessed as increase in cell viability at 2.5 uM pretreated for 2 hrs before MPP challenge measured after 48 hrs relative to control; format: functional
SH-SY5Y [6] = experiment: Neuroprotective activity against MPP-induced neurotoxicity in human SH-SY5Y cells assessed as decrease in cell viability at 5 uM pretreated for 2 hrs before MPP challenge measured after 48 hrs relative to control; format: functional

COc1cc(-c2ccccn2)nc2cnsc12
IC50 (MCF7): Not Active | IC50 (A549): Not Active | Activity (SH-SY5Y [1]): 80% | Activity (SH-SY5Y [2]): Non-toxic | Activity (SH-SY5Y [3]): Dose-dependent effect | IC50 (AGS): Not Active | IC50 (HepG2): Not Active | IC50 (HCT-116): Not Active

COc1cc(-c2ccccn2)nc(C#N)c1SC
IC50 (MCF7): Not Active | IC50 (A549): Not Active | Activity (SH-SY5Y [1]): 83.3% | Activity (SH-SY5Y [2]): Non-toxic | Activity (SH-SY5Y [3]): Dose-dependent effect | inhibition at 50 µM (in vitro): 7.37% | IC50 (AGS): Not Active | IC50 (HepG2): Not Active | IC50 (HCT-116): Not Active

COc1cc(-c2ccccc2)nc(/C=N/O)c1SC [COPRISMYCIN A]
IC50 (MCF7): Not Active | IC50 (A549): Not Active | Activity (SH-SY5Y [1]): 80.3% | Activity (SH-SY5Y [2]): Non-toxic | Activity (SH-SY5Y [3]): Dose-dependent effect | IC50 (AGS): Not Active | IC50 (HepG2): Not Active | IC50 (HCT-116): Not Active

COc1cc(-c2ccccc2)nc(/C=N\O)c1SC [COPRISMYCIN B]
IC50 (MCF7): Not Active | IC50 (A549): Not Active | Activity (SH-SY5Y [4]): Toxic | Activity (SH-SY5Y [2]): Non-toxic | Activity (SH-SY5Y [5]): 88.4% | Activity (SH-SY5Y [3]): Dose-dependent effect | IC50 (AGS): Not Active | IC50 (HepG2): Not Active | Activity (SH-SY5Y [6]): 69.8% | IC50 (HCT-116): Not Active
